The numbers were not newly measured in US4377591A, “7-Oxo-1-azabicyclo[3.2.0]hept-2-ene-2-carboxylic acid derivatives, their use and preparation” (Sankyo Company, Limited, priority 1980, dated 1983), which cites them from elsewhere.

This data set relates to bacteria. Particulars: Japanese Patent Application Kokai No. 73191/76.

As to `C[C@@H](O)[C@H]1C(=O)N2C(C(=O)O)=C(SCCN)C[C@H]12` [thienamycin, (5R,6S)-3-(2-aminoethylthio)-6-[1-(R)-hydroxyethyl]-7-oxo-1-azabicyclo[3.2.0]hept-2-ene-2-carboxylic acid], the “antibacterial activity (in words)” value is reported as “extraordinarily potent antibacterial activity”.
